According to ChEMBL document CHEMBL1177724, “Design, synthesis, and structure-activity relationship studies of novel 2,4,6-trisubstituted-5-pyrimidinecarboxylic acids as peroxisome proliferator-activated receptor gamma (PPARgamma) partial agonists with comparable antidiabetic efficacy to rosiglitazone” (J Med Chem, 2010):
Changes are numbered by the printed parent chain. ≈ marks a conversion by molar mass, not a printed value. Blank lines part the entries; values can stand above or below the compound they belong to. Calls of active or inactive are those of the source. The calls are words filed in the database; no cut-off is given here.

How the values were obtained:
[1] = target: T1, Peroxisome proliferator-activated receptor gamma (Homo sapiens, UniProt P37231)
T1 sequence (P37231 whole entry): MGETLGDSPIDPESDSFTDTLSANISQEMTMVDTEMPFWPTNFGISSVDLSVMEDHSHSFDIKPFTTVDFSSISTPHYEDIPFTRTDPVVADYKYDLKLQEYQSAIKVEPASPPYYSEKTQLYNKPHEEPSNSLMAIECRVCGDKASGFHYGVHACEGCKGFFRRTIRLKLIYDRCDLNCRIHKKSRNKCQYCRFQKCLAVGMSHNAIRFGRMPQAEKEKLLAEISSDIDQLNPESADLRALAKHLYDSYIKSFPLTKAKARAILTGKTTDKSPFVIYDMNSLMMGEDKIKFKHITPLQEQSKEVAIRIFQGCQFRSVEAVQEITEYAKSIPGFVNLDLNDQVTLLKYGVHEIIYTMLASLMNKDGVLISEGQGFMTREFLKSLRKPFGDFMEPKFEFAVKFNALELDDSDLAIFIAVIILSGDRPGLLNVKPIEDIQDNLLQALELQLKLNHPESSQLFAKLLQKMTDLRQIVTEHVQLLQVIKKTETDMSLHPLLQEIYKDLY
Description: Partial agonist activity at human PPARgamma-LBD expressed in CHO-K1 cells co-transfected with GAL4 assessed as luciferase activity by transactivation assay

[2] = target: T2, Peroxisome proliferator-activated receptor gamma (Homo sapiens) (UniProt P37231); experiment: Partial agonist activity at human PPARgamma-LBD expressed in CHO-K1 cells co-transfected with GAL4 assessed as luciferase activity at […] by transactivation assay relative to rosiglitazone; assay type: functional, cell-based
T2 sequence (whole entry): T1 sequence (P37231 whole entry)

[3] = target: T2, Peroxisome proliferator-activated receptor gamma (Homo sapiens); experiment: Partial agonist activity at human PPARgamma-LBD expressed in CHO-K1 cells co-transfected with GAL4 assessed as luciferase activity at 10 uM by transactivation assay; assay type: functional, cell-based
[4] = system: Mus musculus; experiment: Antidiabetic activity in db/db mouse assessed as weight gain at 10 to 100 mg/kg, po qd for 7 days; assay type: functional, organism-based
[5] = system: Mus musculus; experiment: Antidiabetic activity in db/db mouse assessed as reduction of plasma glucose level at 100 mg/kg, po qd for 7 days; assay type: functional; parameters: scale not given: the % may be the effect or the level left
[6] = system: Mus musculus; experiment: Antidiabetic activity in db/db mouse assessed as reduction of plasma glucose level at 30 mg/kg, po qd for 7 days; assay type: functional; parameters: scale not given: the % may be the effect or the level left
[7] = system: Mus musculus; experiment: Antidiabetic activity in db/db mouse assessed as reduction of plasma glucose level at 10 mg/kg, po qd for 7 days; assay type: functional; parameters: scale not given: the % may be the effect or the level left
[8] = Oral bioavailability in mouse at 1 mg/kg; assay type: ADME, organism-based; conditions: in vivo
[9] = AUC in mouse at 1 mg/kg, iv; assay type: ADME, organism-based; parameters: dose 1 mg/kg, route intravenous; conditions: plasma
[10] = Half life in mouse at 1 mg/kg, iv; assay type: ADME, organism-based; parameters: dose 1 mg/kg, route intravenous; conditions: in vivo
[11] = Volume of distribution in mouse at 1 mg/kg, iv; assay type: ADME, organism-based; parameters: dose 1 mg/kg, route intravenous; conditions: in vivo
[12] = Clearance in mouse at 1 mg/kg, iv; assay type: ADME, organism-based; parameters: dose 1 mg/kg, route intravenous; conditions: in vivo
[13] = system: 3T3-L1; experiment: Induction of adipogenesis in mouse blast 3T3L1 cells assessed as P2 mRNA expression level after 7 days […]; assay type: cell-based; conditions: 3t3-l1, 168 h
[14] = Solubility in water; assay type: physicochemical
[15] = AUC in mouse at 1 mg/kg, po; assay type: ADME, organism-based; parameters: dose 1 mg/kg, route oral; conditions: plasma
[16] = Plasma concentration in mouse at 1 mg/kg, iv after 10 mins; assay type: ADME, organism-based; parameters: dose 1 mg/kg, route intravenous
[17] = target: T3, Peroxisome proliferator-activated receptor gamma (Rattus norvegicus, UniProt O88275)
T3 sequence (O88275 whole entry): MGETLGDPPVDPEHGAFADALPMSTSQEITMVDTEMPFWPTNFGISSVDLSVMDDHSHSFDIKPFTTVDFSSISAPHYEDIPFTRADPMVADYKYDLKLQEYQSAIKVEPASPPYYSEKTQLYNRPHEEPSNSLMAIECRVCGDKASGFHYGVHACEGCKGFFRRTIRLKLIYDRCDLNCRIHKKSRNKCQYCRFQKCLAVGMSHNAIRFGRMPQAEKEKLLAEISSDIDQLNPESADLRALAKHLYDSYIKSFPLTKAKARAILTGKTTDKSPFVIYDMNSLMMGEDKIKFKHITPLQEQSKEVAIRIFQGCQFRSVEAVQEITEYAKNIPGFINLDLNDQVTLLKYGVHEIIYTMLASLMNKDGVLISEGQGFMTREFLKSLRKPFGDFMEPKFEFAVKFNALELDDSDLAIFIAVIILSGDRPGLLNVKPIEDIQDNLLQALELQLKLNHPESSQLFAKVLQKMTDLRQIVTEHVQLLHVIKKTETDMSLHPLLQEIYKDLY
Description: Antagonist activity at rat PPARgamma-LBD expressed in CHO-K1 cells co-transfected with GAL4 assessed as inhibition of rosiglitazone-induced luciferase activity by transactivation assay

[18] = target: T1, Peroxisome proliferator-activated receptor gamma; remark: listed apart in the source
Description: Antagonist activity at human PPARgamma-LBD expressed in CHO-K1 cells co-transfected with GAL4 assessed as inhibition of rosiglitazone-induced luciferase activity by transactivation assay

[19] = target: T3, Peroxisome proliferator-activated receptor gamma; remark: listed apart in the source
Description: Partial agonist activity at rat PPARgamma-LBD expressed in CHO-K1 cells co-transfected with GAL4 assessed as luciferase activity by transactivation assay

[20] = target: T4, Peroxisome proliferator-activated receptor gamma (Mus musculus, UniProt P37238)
T4 sequence (P37238 whole entry): T3 sequence (O88275 whole entry) with P8S, D54E, S383N
Description: Antagonist activity at mouse PPARgamma-LBD expressed in CHO-K1 cells co-transfected with GAL4 assessed as inhibition of rosiglitazone-induced luciferase activity by transactivation assay

[21] = target: T4, Peroxisome proliferator-activated receptor gamma; remark: listed apart in the source
Description: Partial agonist activity at mouse PPARgamma-LBD expressed in CHO-K1 cells co-transfected with GAL4 assessed as luciferase activity by transactivation assay

[22] = system: 3T3-L1; experiment: Induction of adipogenesis in mouse 3T3L1 cells assessed as increase in lipid accumulation by Oil red O staining
[23] = system: Mus musculus; experiment: Antidiabetic activity in db/db mouse assessed as weight gain at 3 to 10 mg/kg, po qd for 7 days; assay type: functional, organism-based
[24] = system: 3T3-L1; experiment: Induction of adipogenesis in mouse mature 3T3L1 cells assessed as P2 mRNA expression level after 10 days […]; assay type: cell-based; conditions: 3t3-l1, 240 h

SMILES: CSc1nc(NCC2CCCCC2)c(C(=O)O)c(SCc2ccccc2)n1
EC50 [1]: 300 nM

SMILES: CSc1nc(SCc2ccccc2)c(C(=O)O)c(SCc2ccccc2)n1
Activity [4]: inactive
Activity [5]: 77%
Activity [6]: 56%
Activity [7]: 27%
bioavailability [8]: 35.8%
AUC [9]: 8860 ng·h/mL
half-life [10]: 45.6 min
Vd [11]: 0.12 L/kg
clearance [12]: 1.88 mL/min/kg
Activity [13]: Not Active
solubility [14]: 43.7 µg/mL (≈ 105 µM)
AUC [15]: 3170 ng·h/mL
concentration at 10 min [16]: 6890 ng/mL
IC50 [17]: 539 nM
IC50 [18]: 1790 nM
EC50 [19]: 158 nM
EC50 [1]: 140 nM
IC50 [20]: 1770 nM
EC50 [21]: 158 nM
Activity [22]: Active

SMILES: CN(CCOc1ccc(CC2SC(=O)NC2=O)cc1)c1ccccn1 (stereo not drawn) [ROSIGLITAZONE]
Activity [23]: inactive
Activity [7]: 67%
Activity [24]: Dose-dependent effect
Activity [13]: Dose-dependent effect
Activity [22]: Active

SMILES: CSc1nc(NC2CC2)c(C(=O)O)c(SCc2ccccc2)n1
EC50 [1]: 1800 nM

SMILES: CSc1nc(NCc2cccnc2)c(C(=O)O)c(SCc2ccccc2)n1
EC50 [1]: 740 nM

SMILES: CCCNc1nc(SC)nc(SCc2ccccc2)c1C(=O)O
EC50 [1]: > 10000 nM

SMILES: CSc1nc(NCc2ccccc2)c(C(=O)O)c(SCc2ccccc2)n1
solubility [14]: < 1 µg/mL
EC50 [1]: 180 nM

SMILES: CSc1nc(NCCc2ccccc2)c(C(=O)O)c(SCc2ccccc2)n1
EC50 [1]: 670 nM

SMILES: CSc1nc(NCc2ccccn2)c(C(=O)O)c(SCc2ccccc2)n1
EC50 [1]: 250 nM

SMILES: CNc1nc(SC)nc(SCc2ccccc2)c1C(=O)O
EC50 [1]: > 10000 nM

Results, then the compound that gave them:

EC50 [1]: 550 nM
SMILES: CCCCSc1nc(NCc2ccccc2)c(C(=O)O)c(SCc2ccccc2)n1

EC50 [1]: 2300 nM
SMILES: CSc1nc(NCc2ccccc2)c(C(=O)O)c(OCc2ccccc2)n1

EC50 [1]: 950 nM
SMILES: CCCCCCCCSc1nc(NCc2ccccc2)c(C(=O)O)c(SCc2ccccc2)n1

EC50 [1]: 420 nM
SMILES: CCCCN(C)c1nc(NCc2ccccc2)c(C(=O)O)c(SCc2ccccc2)n1

Activity [2]: inactive
EC50 [1]: > 10000 nM
SMILES: CSc1nc(NCc2ccccc2)c(C(=O)O)c(-c2cccs2)n1

Activity [3]: inactive
SMILES: CSc1nc(C)c(C(=O)NCc2ccccc2)c(NCc2ccccc2)n1

EC50 [1]: > 10000 nM
SMILES: CCCCN(CCCC)c1nc(NCc2ccccc2)c(C(=O)O)c(SCc2ccccc2)n1

EC50 [1]: 1600 nM
SMILES: CSc1nc(Nc2ccccc2)c(C(=O)O)c(SCc2ccccc2)n1

EC50 [1]: > 10000 nM
SMILES: O=C(O)c1c(NCc2ccccc2)ncnc1SCc1ccccc1

EC50 [1]: 470 nM
SMILES: CCCCNc1nc(NCc2ccccc2)c(C(=O)O)c(SCc2ccccc2)n1

EC50 [1]: 250 nM
SMILES: CCCCCCCNc1nc(NCc2ccccc2)c(C(=O)O)c(SCc2ccccc2)n1

EC50 [1]: 2700 nM
SMILES: CSc1nc(NCc2ccncc2)c(C(=O)O)c(SCc2ccccc2)n1

EC50 [1]: 5000 nM
SMILES: CSc1nc(Cl)c(C(=O)NCc2ccccc2)c(NCc2ccccc2)n1
